Data reported in US9878007B2, “Syndecan peptides and polypeptides as inhibitors of vascular endothelial growth factor receptor-2 (VEGFR2) and very late antigen-4 (VLA-4)” (Wisconsin Alumni Research Foundation, priority 2015, dated 2018).

Experiments:
CAG myeloma cells [1] = assay: Cell spreading / attachment assay of CAG myeloma cells on FN or VCAM-1; format: cell-based, human
Experimental: Nitrocellulose-coated slides were coated for 2 hr at 37° C. with 40 μg/ml FN (kindly provided by Dr. Donna Peters, University of Wisconsin-Madison) or 5 μg/ml recombinant VCAM-1/Fc chimera (R&D Systems) in calcium and magnesium-free PBS (CMF-PBS; 135 mM NaCl, 2.7 mM KCl, 10.2 mM Na2HPO4-7H20 and 1.75 mM KH2PO4, pH7.4). Slides were blocked for 1 hr at 37° C. with RPMI 1640 containing 1% heat-denatured BSA (plating medium). Cells in plating medium were allowed to attach and spread for 2.5 hr at 37° C. Slides were fixed in 4% EM grade paraformaldehyde (Electron Microscopy Sciences) in CMF-PBS and labeled for 30 min in 0.13 μM rhodamine phalloidin (Invitrogen) in CMF-PBS. Coverslips were mounted in non-fluorescing mounting medium (Immumount; Thermo Shandon) and allowed to dry. All images were acquired with a Nikon Microphot FX microscope using a 20× objective (Nikon; Ex 541-551, DM 580, Barrier 590), Photometric CoolSnap ES camera, and version 7.7.3.0 Metamorph© Imaging software (Molecular Devices). All images represent results from triplicate wells and at least three independent experiments.

VLA-4 and VEGFR2 = molecular target: T1, VLA-4 and VEGFR2 (Homo sapiens, UniProt P05556+P13612+P35968); assay: Immunostaining for co-localization of GST-S1ED with VLA-4 or VEGFR2; format: cell-based; conditions: HPSE^low cells on FN, 4 μM GST-S1ED, 2.5 hrs
T1 construct: the α4-integrin (VLA-4), which is expressed on myeloma cells; endogenous in cells; host or cells: CAG human myeloma cells (HPSE^low / HPSE^high) plated on fibronectin
T1 sequence (P35968 20-1356): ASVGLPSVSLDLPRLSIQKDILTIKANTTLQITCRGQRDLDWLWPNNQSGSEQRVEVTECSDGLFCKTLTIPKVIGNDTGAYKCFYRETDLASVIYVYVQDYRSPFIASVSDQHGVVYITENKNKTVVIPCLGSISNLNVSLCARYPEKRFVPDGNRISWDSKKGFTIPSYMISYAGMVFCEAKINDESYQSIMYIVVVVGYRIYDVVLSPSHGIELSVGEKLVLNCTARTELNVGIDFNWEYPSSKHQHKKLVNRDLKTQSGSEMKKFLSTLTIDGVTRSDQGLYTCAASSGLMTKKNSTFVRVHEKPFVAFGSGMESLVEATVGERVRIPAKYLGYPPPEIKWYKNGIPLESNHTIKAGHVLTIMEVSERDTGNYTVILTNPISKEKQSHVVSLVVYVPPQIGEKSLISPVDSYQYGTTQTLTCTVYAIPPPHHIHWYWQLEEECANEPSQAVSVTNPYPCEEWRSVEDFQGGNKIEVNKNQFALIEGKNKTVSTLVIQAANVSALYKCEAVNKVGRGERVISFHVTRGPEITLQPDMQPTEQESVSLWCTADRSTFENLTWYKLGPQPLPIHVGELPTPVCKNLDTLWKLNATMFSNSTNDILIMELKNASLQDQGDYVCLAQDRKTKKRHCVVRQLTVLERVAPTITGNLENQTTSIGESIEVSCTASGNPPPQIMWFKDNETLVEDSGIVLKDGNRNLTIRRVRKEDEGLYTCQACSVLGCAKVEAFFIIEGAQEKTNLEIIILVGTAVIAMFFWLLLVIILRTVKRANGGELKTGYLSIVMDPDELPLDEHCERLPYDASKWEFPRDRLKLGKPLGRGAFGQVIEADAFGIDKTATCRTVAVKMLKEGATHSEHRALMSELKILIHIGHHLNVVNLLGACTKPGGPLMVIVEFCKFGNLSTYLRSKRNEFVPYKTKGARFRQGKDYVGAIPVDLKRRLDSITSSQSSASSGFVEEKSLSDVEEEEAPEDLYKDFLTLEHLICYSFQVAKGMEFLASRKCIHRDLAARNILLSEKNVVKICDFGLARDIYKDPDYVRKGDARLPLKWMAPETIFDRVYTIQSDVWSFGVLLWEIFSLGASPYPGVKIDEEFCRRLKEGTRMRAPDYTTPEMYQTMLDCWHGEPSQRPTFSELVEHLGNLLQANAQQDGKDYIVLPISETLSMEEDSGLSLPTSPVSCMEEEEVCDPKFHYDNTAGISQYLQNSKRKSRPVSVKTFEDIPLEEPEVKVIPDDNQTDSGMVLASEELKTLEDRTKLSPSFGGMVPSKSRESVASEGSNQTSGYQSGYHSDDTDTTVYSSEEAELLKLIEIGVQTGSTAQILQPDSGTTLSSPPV
T1 sequence (P13612 34-1032): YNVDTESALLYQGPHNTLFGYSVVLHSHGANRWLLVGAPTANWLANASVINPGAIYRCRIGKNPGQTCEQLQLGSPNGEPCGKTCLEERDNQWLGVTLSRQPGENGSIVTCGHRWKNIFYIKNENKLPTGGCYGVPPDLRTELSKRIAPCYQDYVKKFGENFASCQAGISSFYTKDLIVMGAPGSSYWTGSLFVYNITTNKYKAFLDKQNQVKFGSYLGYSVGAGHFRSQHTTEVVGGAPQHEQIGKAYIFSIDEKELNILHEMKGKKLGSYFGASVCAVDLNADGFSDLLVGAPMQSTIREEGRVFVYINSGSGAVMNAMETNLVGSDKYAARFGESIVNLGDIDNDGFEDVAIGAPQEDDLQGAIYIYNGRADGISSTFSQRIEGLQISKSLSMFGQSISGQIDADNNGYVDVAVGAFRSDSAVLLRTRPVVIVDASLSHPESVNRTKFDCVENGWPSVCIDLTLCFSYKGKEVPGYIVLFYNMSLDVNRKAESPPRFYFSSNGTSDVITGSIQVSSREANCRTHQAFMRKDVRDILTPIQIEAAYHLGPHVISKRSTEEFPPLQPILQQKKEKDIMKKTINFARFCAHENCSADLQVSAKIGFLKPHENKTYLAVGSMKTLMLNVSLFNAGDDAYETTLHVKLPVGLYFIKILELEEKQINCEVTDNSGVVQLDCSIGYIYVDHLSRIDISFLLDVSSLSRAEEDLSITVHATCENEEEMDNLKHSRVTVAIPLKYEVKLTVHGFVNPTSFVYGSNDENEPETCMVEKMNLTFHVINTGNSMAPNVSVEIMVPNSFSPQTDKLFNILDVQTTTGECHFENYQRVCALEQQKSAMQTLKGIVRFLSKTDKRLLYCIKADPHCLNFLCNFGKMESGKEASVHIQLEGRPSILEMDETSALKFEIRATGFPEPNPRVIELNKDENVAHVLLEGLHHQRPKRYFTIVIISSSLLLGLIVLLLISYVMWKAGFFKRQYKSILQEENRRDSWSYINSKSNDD
T1 sequence (P05556 21-798): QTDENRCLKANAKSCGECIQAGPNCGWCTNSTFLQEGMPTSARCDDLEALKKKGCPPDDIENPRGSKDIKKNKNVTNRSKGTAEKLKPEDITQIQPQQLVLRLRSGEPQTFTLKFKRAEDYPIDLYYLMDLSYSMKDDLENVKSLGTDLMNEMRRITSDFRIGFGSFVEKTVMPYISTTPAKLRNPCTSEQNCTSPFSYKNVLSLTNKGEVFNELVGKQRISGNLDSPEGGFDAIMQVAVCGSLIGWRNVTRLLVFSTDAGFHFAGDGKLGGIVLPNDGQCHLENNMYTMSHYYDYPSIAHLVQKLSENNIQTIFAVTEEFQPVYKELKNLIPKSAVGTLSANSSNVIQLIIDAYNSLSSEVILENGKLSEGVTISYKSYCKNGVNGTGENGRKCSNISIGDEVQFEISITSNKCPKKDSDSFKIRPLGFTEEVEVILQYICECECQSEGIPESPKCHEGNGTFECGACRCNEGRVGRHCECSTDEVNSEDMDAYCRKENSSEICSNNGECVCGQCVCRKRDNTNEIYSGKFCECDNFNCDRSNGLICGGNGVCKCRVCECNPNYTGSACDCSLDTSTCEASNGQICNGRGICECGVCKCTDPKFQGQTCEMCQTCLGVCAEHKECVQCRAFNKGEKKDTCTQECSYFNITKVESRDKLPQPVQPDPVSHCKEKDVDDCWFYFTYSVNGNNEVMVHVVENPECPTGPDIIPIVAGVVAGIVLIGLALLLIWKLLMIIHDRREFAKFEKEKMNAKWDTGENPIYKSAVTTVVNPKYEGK
Experimental: (§1) FIGS. 5A-C. Recombinant Sdc1 ectodomain (GST-S1ED) causes capture of VEGFR2 by VLA-4. (FIG. 5A) HPSE^high cells were plated on FN for 2.5 hrs and double stained for VLA-4 and VEGFR2. (FIG. 5B) HPSE^low cells were plated on FN in the presence of 4 μM GST-S1ED. After 2.5 hrs, cells were double-stained for GST to detect the GST-S1ED and VLA-4 or VEGFR2. (FIG. 5C) HPSE^low cells were plated on FN-pre-coated dishes for 2.5 hr in the absence or presence of GST-S1ED and whole cell lysates were prepared for immunoprecipitation with anti-VEGFR2 and VLA-4 antibodies. The associated VLA-4 was detected by immunoblotting with a VLA-4 antibody.
Fixed cells on FN-coated slides were quenched with 0.1 M glycine, permeabilized with CMF-PBS containing 0.1% Triton X-100 for 3 min at room temperature (RT) and blocked with 5% BSA in CMF-PBS. […]

VEGFR2 and VLA-4 [2] = molecular target: T2, VEGFR2 and VLA-4 (Homo sapiens, UniProt P05556+P13612+P35968); assay: Immunoprecipitation of VEGFR2 and detection of associated VLA-4; format: cell-based; conditions: HPSE^low cells on FN, 2.5 hr, in the presence of GST-S1ED
T2 construct: the α4-integrin (VLA-4), which is expressed on myeloma cells; endogenous in cells; host or cells: CAG human myeloma cells (HPSE^low / HPSE^high) plated on fibronectin
T2 sequence (P35968 20-1356): as the sequence (P35968 20-1356) above
T2 sequence (P13612 34-1032): as the sequence (P13612 34-1032) above
T2 sequence (P05556 21-798): as the sequence (P05556 21-798) above
Experimental: as §1
HPSE^low cells were plated on FN in the presence of 4 μg/ml GST or GST-S1ED for 2.5 hr. The cells were washed with CMF-PBS, then lysed for 20 min on ice in lysis buffer (0.5% Triton X-100 in 50 mM Hepes, 50 mM NaCl and 10 mM EDTA (pH 7.4) containing a 1:1000 dilution of protease inhibitor mixture set III (Calbiochem). Cell lysates were precleared at 13000 rpm for 20 min at 4° C. using 50 μg/ml isotype-matched nonspecific IgG and 30 μl of protein G agarose (GE Healthcare), then incubated at 4° C. overnight with either 10 μg/ml anti-α4-integrin (P1H4) or VEGFR2 (mAb 55B11) or nonspecific mouse IgG. Immunoprecipitated α4-integrin or VEGFR2 were dissolved in SDS sample buffer), electrophoresed and analyzed on western blots as described previously. […]

VLA-4 = molecular target: T3, VLA-4 (Homo sapiens, UniProt P05556+P13612); assay: GST pull down assay: capture of VLA-4 by GST-S1ED; format: binding
T3 construct: the α4-integrin (VLA-4), which is expressed on myeloma cells; endogenous in cells; host or cells: CAG human myeloma cells (HPSE^low), whole-cell lysate
T3 sequence (P13612 34-1032): as the sequence (P13612 34-1032) above
T3 sequence (P05556 21-798): as the sequence (P05556 21-798) above
Experimental: (§2) FIGS. 6A-G. Peptides derived from the active site in Sdc1 activate or inhibit adhesion and invasion. (FIG. 6A) Transwell migration assays towards FN (for 16 hrs) were performed for HPSE low or high cells in the presence of 0, 0.3, 3, and 30 μM of S1ED^210-240. Cells migrating to the bottom side of the filter were counted from five random images for each treatment. (FIG. 6B) The sequence of S1ED210-240 is shown (SEQ ID NO: 3), as well as […] truncation mutants of the peptide (SEQ ID NOs: 5, 2, 4 and 7). Amino acids shown in red appear necessary for the spreading and invasive activity. (FIG. 6C) Images of HPSE^low and HPSE^high cells plated on FN for 2 hr. (FIG. 6D) HPSE^low cells were treated with 0, 0.3, 3, 10 and 30 μM of S1ED^210-236, S1ED^210-233, or S1ED^214-240, plated on FN for 2 hr, fixed and stained with fluorescent phalloidin. Cells from five random images were quantified for cell attachment and cell spreading. (FIG. 6E) HPSE^high cells were treated with 0, 3, 10, and 30 μM of S1ED^210-236, S1ED^210-233, and S1ED^214-240, plated on FN for 2 hr, then fixed, imaged and quantified as in FIG. 6D. (FIG. 6F) Transwell migration assays towards FN (for 16 hr) were performed for HPSE^low or HPSE^high cells in the presence of 30 μM of S1ED^210-236, S1ED^210-233, S1ED^214-240 and Vandetanib. (FIG. 6G) HPSE^low cell lysates were incubated overnight with glutathione beads coated with GST or GST-S1ED in the absence or presence of 30 μM of S1ED^210-236, S1ED^210-233, and S1ED^214-240. Capture of VLA-4 or VEGFR2 was detected by immunoblotting. Sequences in FIG. 6B are 210-240 (SEQ ID NO: 3), 210-236 (SEQ ID NO: 2), 210-233 (SEQ ID NO: 4), 214-240 (SEQ ID NO: 5) and 214-236 (SEQ ID NO: 7).
(§3) CAG cells were washed with CMF-PBS and then lysed for 20 min on ice in lysis buffer. Cell debris was removed by centrifugation at 13000 rpm for 20 min at 4° C. Whole cell lysates were then incubated at 4° C. overnight with either 3 μM GST or 3 μM GST-S1ED in the absence or presence of 1 μM, 3 μM, and 10 μM S1ED^210-240 peptide. GST or GST-S1ED was captured by addition of glutathione Sepharose and the beads were washed with ice-cold lysis buffer and CMF-PBS, prior to addition of SDS-PAGE sample buffer and analyszed by electrophoresis and western blotting as described previously.

VEGFR2 = molecular target: T4, VEGFR2 (Homo sapiens, UniProt P35968); assay: GST pull down assay: capture of VEGFR2 by GST-S1ED; format: binding
T4 construct: endogenous in cells; host or cells: CAG human myeloma cells (HPSE^low = empty vector; HPSE^high = human HPSE cDNA)
T4 sequence (P35968 20-1356): as the sequence (P35968 20-1356) above
Experimental: as §2, §3

VEGFR2 and VLA-4 [3] = molecular target: T2, VEGFR2 and VLA-4; assay: Activation / inhibition of Sdc1-mediated coupling of VEGFR2 to VLA-4 (FIGS. 6A-H); format: cell-based
Experimental: as §2
It is envisioned that a peptide that contains binding sites for both VEGFR2 and VLA-4, such as 210-236, has the capacity to bridge both receptors and link them together. This activates signaling that the cells use for migration and invasion. […]

CAG myeloma cells [4] = assay: Transwell migration assay of CAG myeloma cells towards FN; format: cell-based, human; conditions: 16 hrs
Experimental: The bottom chambers of Transwell filter chambers (8 μm pores; Corning) were coated with 40 μg/ml of FN. Cells (5×10^5 in 0.2 ml plating medium) were placed in the upper chamber and incubated for 16 hr at 37° C. in the CO2 incubator. After incubation, cells in the upper chamber were removed and cells on the bottom side of the filter were fixed in 4% paraformaldehyde (PFA) and stained with 0.1% Crystal Violet before imaging. Cells from at least five random fields were counted.

[5] = system: human SKBr3 mammary carcinoma cells; assay: Breast cancer xenograft treated with systemic peptide; format: in vivo; conditions: SKBr3 xenografts in nude mice; 1.09 mg/kg/day by Alzet pump for 3 weeks
Experimental: FIG. 9. Treatment of breast cancer xenograft with systemic S1ED^210-240. 4×10^6 human SKBr3 mammary carcinoma cells were injected in a 1:1 mix with matrigel into the posterior flanks of immunodeficient nude (nu/nu) mice and allowed to establish for one week as palpable tumors. Alzet pumps were then implanted subcutaneously on the anterior dorsal backs of the animals, systemically delivering either phosphate buffered-saline alone (PBS) or S1ED 210-240 peptide in PBS for 3 weeks of treatment. Peptide was delivered at 1.09 mg/kg/day, a concentration estimated to achieve concentrations sufficient to block the VLA-4/VEGFR2 mechanism. Tumor sizes were measured with calipers and converted to tumor volumes using the equation […]. The data are shown as the mean of 12 tumors+/−S.E.M.

Substance | rescue of HPSE^high polarized phenotype blocked by MMP9 blocking antibody (CAG myeloma cells [1]; on FN, GST-S1ED added) | induction of HPSE^low cell spreading by GST-S1ED constructs (CAG myeloma cells [1]; on VCAM-1, 4 μM GST-S1ED constructs) | co-localization with VEGFR2 or VLA-4 (VLA-4 and VEGFR2) | co-immunoprecipitation of VLA-4 with VEGFR2 (VEGFR2 and VLA-4 [2]) | capture of VLA-4 by GST-S1ED (VLA-4; CAG myeloma cell lysates) | capture of VLA-4 by GST-S1ED (VLA-4; HMEC-1 cell lysate) | capture of VEGFR2 by GST-S1ED (VEGFR2; CAG myeloma cell lysates) | capture of VEGFR2 by GST-S1ED (VEGFR2; HMEC-1 cell lysate) | concentration at which the peptide inhibits the mechanism (VEGFR2 and VLA-4 [3]) [µM] | induction of HPSE^low cell spreading by S1ED peptides (CAG myeloma cells [1]; on VCAM-1, 0.3 μM peptide) | FN-induced migration of HPSE^high cells (CAG myeloma cells [4]; 30 μM peptide) | migration of HPSE^low cells (CAG myeloma cells [4]; 30 μM peptide) | migration of HPSE^low cells (CAG myeloma cells [4]; low concentrations, 0.3-3 μM peptide) | size of the tumors [5]
GST-S1ED: recombinant GST-tagged Sdc1 ectodomain expressed in bacteria and devoid of HS | polarized phenotype is rescued | induced cell spreading | co-localized with VEGFR2 or VLA-4 at the protrusive lamellipodium | VLA-4 is co-immunoprecipitated with VEGFR2 | captures both VLA-4 and VEGFR2 | captures VLA-4 and VEGFR2 from HMEC-1 cells lysates | captures both VLA-4 and VEGFR2 | captures VLA-4 and VEGFR2 from HMEC-1 cells lysates | – | – | – | – | – | –
S1ED^210-240: peptide corresponding to amino acids 210-240 of syndecan-1 ectodomain (SEQ ID NO: 3) (DFTFETSGENTAVVAVEPDRRNQSPVDQGAT) | – | – | – | – | – | – | – | – | 30 | sufficient to induce HPSE^low cell spreading on VCAM-1 | decreased | failed to induce | induced migration of HPSE^low cells at low concentrations | effectively reduced the size of the tumors
